# Measurements taken from patent EP4427759A1, “TRACEABLE CHIMERIC ANTIGEN RECEPTOR CELL” (Eberhard-Karls-Universität Tübingen, priority 2023, dated 2024).
# Key:
# HCT116 CTRL xenografts = test: HCT116 control xenograft model, ex vivo biodistribution by gamma-counting; format: in vivo, NOD.CB17-Prkdcscid/J mice; details: gamma-counting after 1 h dynamic PET scan, n = 5
# Experimental: (§1) For the xenograft model, 5 × 10^6 cells/mL cells were injected. Five NOD.CB17-Prkdcscid/J were injected with HCT116 WT, and five additional mice were injected with HCT116 AdCAR subcutaneously into the right flank in a mixture of 1:1 Matrigel and PBS (200 µL per mouse) with a 1 mL syringe (30G canula). Afterwards the tumors grew for approximately two weeks before PET and MR measurements.
# (§2) For the xenograft model a one-hour dynamic PET scan was performed. The mice were anaesthetized with isoflurane (initially 5%, then 1.5-2%) and a catheter was placed into the tail vein. The mice were placed onto the scanner bed and the body was centered into the field of view (FOV). Mice were injected with13.6 ± 0.35 MBq of [^18F]biotin3FB on average at the beginning of the PET scan and measured for 1h. Afterwards, MR scans were performed to gain anatomical information using an TurboRare spin-echo sequence. After the scans, the mice were sacrificed, and the organs were collected to quantify radiotracer uptake by ex vivo gamma-counting.
# (§3) Reconstruction and analysis of the acquired PET/MR data was performed with Inveon Acquisition Workplace and Inveon Research Workplace (IRW), respectively, using dynamic framing and an ordered subset expectation maximization (OSEM) 3D algorithm. For the second part of the experiment statistic framing was used. […]
# [1] = one-hour dynamic PET scan, time activity curves of organs; format: in vivo, NOD.CB17-Prkdcscid/J mice
# Experimental: as §2
# (§4) Reconstruction and analysis of the acquired PET/MR data was performed with Inveon Acquisition Workplace and Inveon Research Workplace (IRW), respectively, using dynamic framing and an ordered subset expectation maximization (OSEM) 3D algorithm. For the second part of the experiment statistic framing was used. Regions of interest (ROIs) were drawn under consideration of the acquired MR images and co-registered with the PET data to obtain time-activity curves (TACs).
# Jurkat AdCAR cells = test: Jurkat model, static PET/MR and ex vivo biodistribution; format: in vivo, mice; details: Jurkat AdCAR vs Jurkat CTRL i.p.; day 1, 3 and 7 after cell injection; 1 h resting uptake
# Experimental: Five mice were injected with 1 × 10^7 cells/mL Jurkat LucGFP (CTRL), and five additional mice were injected with 1 × 10^7 cells/mL Jurkat aCAR in 200µl PBS into the peritoneal cavity with a 1 mL syringe (30G canula).
# For the Jurkat model a ten-minute static PET scan was performed. The mice were anaesthetized with isoflurane (initially 5%, then 1.5-2) and a catheter was placed into the tail vein. The mice were injected with 13.6 ± 0.24 MBq of [^18F]biotin3FB on average and afterwards placed in an isoflurane box for a one-hour resting uptake. After 1 h, the mice were placed onto the scanner bed, the body was centered into the FOV, and a 10 min PET scan was performed. Afterwards, MR scans were performed as described above. The PET and MR measurements took place on day 1, 3 and 7 after cell injection. When the measurements on the 7th day were finished, the mice were sacrificed and uptake in spleen, lymph nodes, muscle and blood were quantified by ex vivo gamma-counting.
# as §3
# HCT116 AdCAR xenografts = test: HCT116 AdCAR xenograft model, PET/MR and ex vivo biodistribution by gamma-counting; format: in vivo, NOD.CB17-Prkdcscid/J mice
# Experimental: as §1, §2, §4
# [2] = ex vivo biodistribution, xenograft model
substance,measurement,setting,value
[^18F]biotin3fluorobenzoate [[^18F]biotin3FB],"uptake in xenografts, ex vivo biodistribution analysis",HCT116 CTRL xenografts,0.73 % ID/g
same,"SUVpeak(aCAR), brain TAC","[1]; brain, mice with HCT116 AdCAR xenografts",0.54
same,"SUVpeak(CTRL), brain TAC","[1]; brain, mice with HCT116 CTRL xenografts",0.45
same,blood half-life,"[1]; calculated from the heart TAC, i.v. tail vein",2.3 min
same,radiotracer uptake in the brain,[1]; [2],Almost no uptake
same,radiotracer uptake in the kidney,[1]; [2],High radiotracer uptake
same,"difference between AdCAR expressing cells and control cells (PET/MR, spleen uptake)",Jurkat AdCAR cells,no difference
same,"uptake in xenografts, ex vivo biodistribution analysis","HCT116 AdCAR xenografts; AdCAR expressing xenografts, gamma-counting after 1 h dynamic PET scan, n = 5",4.59 % ID/g
same,"tumor-to-muscle ratio (TMR), AdCAR xenografts compared to control xenografts","HCT116 AdCAR xenografts; P=0.0159, Mann-Whitney test, n = 5 per group",significantly higher
same,"absolute tumor uptake, AdCAR xenografts compared to control xenografts","HCT116 AdCAR xenografts; p = 0.0050, unpaired t test, n = 5 per group",significantly higher
